Active and inactive are the calls of the source. The rule behind the calls is not given here.
What was measured:
[1] = target: Serine/threonine-protein kinase B-raf (Homo sapiens, UniProt P15056, V600E); test: Inhibition of BRAF V600E mutant (unknown origin) after 20 mins by immunoblotting assay
[2] = target: T1, Tyrosine-protein kinase ABL1 (Homo sapiens, UniProt P00519); test: Inhibition of ABL (unknown origin) by phosphocellulose paper disk assay
Bcr/Abl fusion protein = Bcr/Abl fusion protein (Homo sapiens, UniProt P00519); test: Inhibition of BCR-ABL (unknown origin) expressed in mouse BA/F3 cells assessed as reduction in ABL phosphorylation at Y412 residue incubated for 3 hrs by immunoblotting assay; type: cell-based
Chain of Bcr/Abl fusion protein (P00519 whole entry, the tested form may be a part): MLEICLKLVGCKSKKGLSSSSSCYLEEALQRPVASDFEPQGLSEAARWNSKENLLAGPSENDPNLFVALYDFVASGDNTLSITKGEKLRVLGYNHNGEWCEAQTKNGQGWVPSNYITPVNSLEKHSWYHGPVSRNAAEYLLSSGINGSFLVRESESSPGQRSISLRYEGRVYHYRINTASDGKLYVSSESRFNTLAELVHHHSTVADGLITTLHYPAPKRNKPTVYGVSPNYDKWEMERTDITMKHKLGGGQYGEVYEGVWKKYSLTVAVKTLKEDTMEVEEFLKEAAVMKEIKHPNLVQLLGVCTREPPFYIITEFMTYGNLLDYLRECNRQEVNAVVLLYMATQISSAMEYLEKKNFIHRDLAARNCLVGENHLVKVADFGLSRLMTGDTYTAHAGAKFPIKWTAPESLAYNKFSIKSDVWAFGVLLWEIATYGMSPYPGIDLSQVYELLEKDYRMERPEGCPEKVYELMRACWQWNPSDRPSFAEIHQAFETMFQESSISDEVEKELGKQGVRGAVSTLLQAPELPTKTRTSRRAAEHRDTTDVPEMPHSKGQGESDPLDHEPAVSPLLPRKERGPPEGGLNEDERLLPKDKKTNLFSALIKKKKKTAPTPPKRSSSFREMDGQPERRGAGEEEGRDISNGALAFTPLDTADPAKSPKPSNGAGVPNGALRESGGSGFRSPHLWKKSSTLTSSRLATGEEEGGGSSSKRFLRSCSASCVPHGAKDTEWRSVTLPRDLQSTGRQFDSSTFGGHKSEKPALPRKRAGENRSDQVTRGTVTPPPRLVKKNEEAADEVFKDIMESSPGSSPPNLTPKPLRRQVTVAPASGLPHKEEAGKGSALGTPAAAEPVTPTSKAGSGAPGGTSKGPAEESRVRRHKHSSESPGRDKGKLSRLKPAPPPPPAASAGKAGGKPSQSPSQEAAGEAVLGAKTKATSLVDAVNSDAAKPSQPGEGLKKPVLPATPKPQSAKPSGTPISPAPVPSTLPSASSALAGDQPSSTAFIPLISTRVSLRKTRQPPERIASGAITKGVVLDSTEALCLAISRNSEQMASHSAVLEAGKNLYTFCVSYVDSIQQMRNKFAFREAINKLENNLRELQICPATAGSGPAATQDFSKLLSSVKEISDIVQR
Chain of Bcr/Abl fusion protein (P11274 whole entry, further chain, the tested form may be a part): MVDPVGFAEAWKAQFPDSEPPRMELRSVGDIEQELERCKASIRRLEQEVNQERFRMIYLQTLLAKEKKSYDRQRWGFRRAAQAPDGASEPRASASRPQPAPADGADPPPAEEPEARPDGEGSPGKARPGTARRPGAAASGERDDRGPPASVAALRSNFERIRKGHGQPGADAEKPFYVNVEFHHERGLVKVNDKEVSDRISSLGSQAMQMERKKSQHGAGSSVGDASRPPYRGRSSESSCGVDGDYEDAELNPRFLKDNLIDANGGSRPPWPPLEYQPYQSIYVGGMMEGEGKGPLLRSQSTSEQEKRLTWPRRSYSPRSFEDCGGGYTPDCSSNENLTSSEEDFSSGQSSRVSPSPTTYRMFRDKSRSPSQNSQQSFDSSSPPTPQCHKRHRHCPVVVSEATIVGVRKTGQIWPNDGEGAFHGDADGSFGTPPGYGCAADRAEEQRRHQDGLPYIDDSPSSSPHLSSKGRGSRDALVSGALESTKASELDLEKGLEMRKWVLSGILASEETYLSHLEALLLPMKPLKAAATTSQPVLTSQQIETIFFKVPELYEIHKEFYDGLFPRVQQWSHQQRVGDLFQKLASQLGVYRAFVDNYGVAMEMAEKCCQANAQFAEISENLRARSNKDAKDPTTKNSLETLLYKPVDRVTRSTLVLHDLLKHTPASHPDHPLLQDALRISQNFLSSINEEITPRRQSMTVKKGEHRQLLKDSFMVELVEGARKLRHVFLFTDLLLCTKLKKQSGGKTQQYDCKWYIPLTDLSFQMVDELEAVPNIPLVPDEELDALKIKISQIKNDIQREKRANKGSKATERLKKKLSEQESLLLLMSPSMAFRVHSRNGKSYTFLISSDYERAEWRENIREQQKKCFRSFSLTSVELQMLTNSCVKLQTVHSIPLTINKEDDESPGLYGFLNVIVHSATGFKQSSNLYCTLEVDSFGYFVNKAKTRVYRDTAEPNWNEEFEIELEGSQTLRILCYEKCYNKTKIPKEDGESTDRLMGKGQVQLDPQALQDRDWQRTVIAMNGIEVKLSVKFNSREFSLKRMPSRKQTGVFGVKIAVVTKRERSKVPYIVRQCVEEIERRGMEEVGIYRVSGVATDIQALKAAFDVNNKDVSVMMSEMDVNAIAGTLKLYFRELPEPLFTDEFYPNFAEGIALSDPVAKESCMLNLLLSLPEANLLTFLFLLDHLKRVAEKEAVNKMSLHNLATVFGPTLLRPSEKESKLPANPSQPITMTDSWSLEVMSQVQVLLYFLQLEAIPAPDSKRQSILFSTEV

[3] = target: T1, Tyrosine-protein kinase ABL1; test: Inhibition of ABL (unknown origin) at 30 nM by phosphocellulose paper disk assay
[4] = tested on: Serine/threonine-protein kinase B-raf (Homo sapiens), P15056 [V600E]; test: Inhibition of BRAF V600E mutant in human A375 cells assessed as decrease in MEK phosphorylation up to 100 uM after 1 hr by immunoblotting assay; type: cell-based
Chain of Serine/threonine-protein kinase B-raf (Homo sapiens), P15056 [V600E] (P15056 whole entry V600E): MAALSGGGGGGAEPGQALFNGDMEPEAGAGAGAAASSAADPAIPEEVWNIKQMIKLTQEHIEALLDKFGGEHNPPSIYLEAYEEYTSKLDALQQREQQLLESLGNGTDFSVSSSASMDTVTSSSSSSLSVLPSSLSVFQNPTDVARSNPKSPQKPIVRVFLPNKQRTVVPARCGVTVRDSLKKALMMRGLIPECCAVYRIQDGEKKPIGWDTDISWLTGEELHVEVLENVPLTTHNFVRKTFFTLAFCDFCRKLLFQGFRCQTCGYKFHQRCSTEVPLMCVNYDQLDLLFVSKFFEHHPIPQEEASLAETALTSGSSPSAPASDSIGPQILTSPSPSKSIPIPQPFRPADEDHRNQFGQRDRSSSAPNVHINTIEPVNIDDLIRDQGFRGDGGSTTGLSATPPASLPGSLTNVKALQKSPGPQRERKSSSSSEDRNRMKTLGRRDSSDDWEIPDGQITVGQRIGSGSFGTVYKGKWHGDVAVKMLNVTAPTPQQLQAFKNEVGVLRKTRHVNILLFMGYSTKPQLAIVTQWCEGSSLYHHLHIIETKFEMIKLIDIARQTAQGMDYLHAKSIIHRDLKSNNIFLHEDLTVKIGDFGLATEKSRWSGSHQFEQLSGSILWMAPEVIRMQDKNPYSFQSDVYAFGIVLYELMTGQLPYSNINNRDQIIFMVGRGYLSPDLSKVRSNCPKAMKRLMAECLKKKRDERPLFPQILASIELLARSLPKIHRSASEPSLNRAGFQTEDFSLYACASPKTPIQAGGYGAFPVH

T1 sequence (P00519 whole entry, the tested form may be a part): as the sequence (P00519 whole entry, the tested form may be a part) above
Chain of Serine/threonine-protein kinase B-raf (P15056 2-766 V600E limits assumed): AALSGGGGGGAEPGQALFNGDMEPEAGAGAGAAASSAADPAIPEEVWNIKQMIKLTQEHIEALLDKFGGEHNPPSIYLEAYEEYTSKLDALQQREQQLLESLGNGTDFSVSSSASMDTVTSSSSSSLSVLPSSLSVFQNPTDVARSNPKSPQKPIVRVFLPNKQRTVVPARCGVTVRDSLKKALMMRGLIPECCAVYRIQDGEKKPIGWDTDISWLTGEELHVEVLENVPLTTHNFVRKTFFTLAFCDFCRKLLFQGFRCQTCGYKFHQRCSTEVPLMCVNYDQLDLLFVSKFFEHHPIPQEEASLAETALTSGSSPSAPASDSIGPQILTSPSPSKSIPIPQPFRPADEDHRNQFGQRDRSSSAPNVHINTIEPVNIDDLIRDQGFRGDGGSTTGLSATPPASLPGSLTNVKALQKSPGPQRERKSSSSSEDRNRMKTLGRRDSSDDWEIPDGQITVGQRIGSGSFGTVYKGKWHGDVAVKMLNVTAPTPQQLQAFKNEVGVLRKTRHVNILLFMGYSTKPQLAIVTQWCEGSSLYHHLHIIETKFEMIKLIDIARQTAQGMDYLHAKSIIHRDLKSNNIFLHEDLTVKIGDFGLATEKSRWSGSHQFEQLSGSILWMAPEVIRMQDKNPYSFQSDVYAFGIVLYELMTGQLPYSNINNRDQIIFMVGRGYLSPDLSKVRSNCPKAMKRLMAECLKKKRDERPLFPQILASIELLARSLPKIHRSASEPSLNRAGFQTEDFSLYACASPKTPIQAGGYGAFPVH

Row | IC50 [1] [nM] | IC50 [2] [nM] | IC50 (Bcr/Abl fusion protein) [nM] | inhibition [3] | inhibition [4] | Structure (SMILES)
1 | 24 |  |  |  |  | Cc1ccc(-c2cc3cccc(C#Cc4nn(C(C)C)c5ncnc(N)c45)c3cn2)cc1
2 | 51 | 7 | 211 | inactive |  | CC(C)n1nc(C#Cc2cccc3cc(-c4ccc(CN5CCN(C)CC5)cc4)ncc23)c2c(N)ncnc21
3 | 87 | 22 |  | inactive |  | CC(C)n1nc(C#Cc2cccc3cc(-c4ccc(Cl)c(C(F)(F)F)c4)ncc23)c2c(N)ncnc21
4 | 13 | 3.5 |  | inactive | inactive | CCn1nc(C#Cc2cccc3cc(-c4cccc(C(F)(F)F)c4)ncc23)c2c(N)ncnc21
5 | 46 |  |  |  |  | CC(C)n1nc(C#Cc2cccc3cc(-c4ccc(Cl)cc4)ncc23)c2c(N)ncnc21
6 | 44 | 10 |  | inactive |  | Cc1ccc2cc(-c3cccc(C(F)(F)F)c3)ncc2c1C#Cc1nn(C(C)C)c2ncnc(N)c12

— ChEMBL document CHEMBL4229333, “Effects of rigidity on the selectivity of protein kinase inhibitors” (Eur J Med Chem, 2018)
